Data taken from patent US9487557B2, “Peptides for management of lactation” (MILEUTIS LTD., priority 2012, dated 2016).
Square brackets hold non-standard residues; d marks the D form. Ends that are not written are not given here. pS = N[C@@H](COP(=O)(O)O)C(=O)O

Experiments:
Assay type in all cases: in vivo
[1] = test system: mammary gland of lactating dairy cows; assay: Field study of involution induction: change of pH in milk samples after a single intramammary infusion at dry-off; settings: difference in pH vs Day 0, single intramammary infusion, peptides 4 mg in 10 ml, casein hydrolyzate 20 ml; for Changes of pH in milk samples, Day 1, Mean: Day 1 post treatment; for Changes of pH in milk samples, Day 2, Mean: Day 2 post treatment; for Changes of pH in milk samples, Day 3, Mean: Day 3 post treatment
Method: (§1) A filed study was performed to assess the potential of a single intramammary dose of the synthetic peptides of the invention administered at dry (i.e. at the day in which milking is ceased), to induce rapid involution.
(§2) Total of 107 dairy cows were enrolled to the study, of which 45 received treatment and 62 served as a control. All cows were dairy cows at their first or further lactation that stand the inclusion/exclusion criteria. The study was a controlled blinded case-control study.
(§3) Case subjects received one dose by intramammary infusion of a particular peptide. Controls were lactating cows that received the following products by intramammary administration:
(§4) Five groups of 9 cows (total of 36 udder quarters per group) were scheduled as case groups. Each group was treated with one out of the five (5) phosphopeptides described in Example 1 hereinabove (P241210-01-01; 03; 05; 07 and 09). The peptides were administered once via intramammary infusion of 10 ml containing 4 mg peptide.
(§5) Set one: Five groups of 9 cows (total of 36 udder quarters per group) were scheduled as a first control set. Each group was treated with one out of the five (5) dephosphorylated peptides described in Example 1 hereinabove (P241210-01-02; 04; 06; 08 and 10). The peptides were administered once via intramammary infusion of 10 ml containing 4 mg peptide.
(§6) (i) Eleven cows (total of 44 udder quarters) treated with casein hydrolyzate (20 ml) administered once via intramammary infusion of 20 ml (around 1.8 mg/ml casein phosphopeptide (CPP), total=36 mg CPP for 20 ml)
(§7) All treatments (peptides, casein hydrolyzate and saline) were administered at the time point scheduled for cessation of milking (dry off). The day of administration was set as Day 0.
(§8) Sets of aseptic milk samples were collected in two separate vials once a day in the milking facility after the morning milking, on Day 0 and in post-treatment days 1, 2 and 3. The sampling time points were set to up to three days after treatment administration to ensure sufficient milk secretion for the measurements of all involution parameters. The volume of the samples was between 30 to 50 ml. The pH of the milk sample was measured in situ using a Cyberscan pH11 meter (Eutech Instruments, Singapore). The apparatus was calibrated each day by immersing the receptor in standard buffers of pH 7.0 and pH 4.01. Measurements were taken twice for each sample obtained from a mammary gland, with an interval of 30 seconds between measurements. pH measurement was repeated on-site by using the same sample vial. Before double-pH measurement, the milk sample vials were gently shaken three (3) times. After the pH measurement, the milk samples vials were kept in cool storage with a preservative product (Broad Spectrum Microtabs II—Bronopol and Metamycin—D&F Control System Inc., Two Technology Way, Norwood Mass. 02062 USA).
(§9) Endpoint Measures: pH, lactose and somatic cell counts (SCC) values from milk secretions at day 0 and during three (3) days post-treatment were taken. Results are described as the difference between the measures at each of the 3 days post treatment and the measured level at Day 0.
Table 2 below summarizes the effect of the peptides examined and of casein hydrolyzate (CNH) on the pH of milk samples taken 1, 2 and 3 days after the one-dose treatment with each peptide or CNH. The results are presented as the difference in pH value between each of the days post treatment and Day 0 (before treatment).

[2] = test system: mammary gland of lactating dairy cows; assay: Field study of involution induction: change in somatic cell counts in milk samples after a single intramammary infusion at dry-off; settings: change vs Day 0, calculated from log transformation of raw data, single intramammary infusion, peptides 4 mg in 10 ml, casein hydrolyzate 20 ml; for Changes in Somatic Cell Counts in milk samples, Day 1, Mean: Day 1 post treatment; for Changes in Somatic Cell Counts in milk samples, Day 2, Mean: Day 2 post treatment; for Changes in Somatic Cell Counts in milk samples, Day 3, Mean: Day 3 post treatment
Method: as §1, §2, §3, §4, §5, §6, §7, §8
Somatic cell count was also determined in milk samples by Fossomatic 360 (Foss Electric, Hillerod, Denmark), and based on guidelines from the USA National Mastitis Council. Laboratory Handbook on Bovine Mastitis. 1999. Ed. National Mastitis Council, Verona, Wis. 53593 USA.
as §9
Additional parameter that may be used to establish the progression of the involution process is the presence of somatic cells within the milk. The increase in cell count within the milk is the result of high degree of apoptotic epithelial cell death associated with involution. […] The results presented in the table were calculated from log transformation of the raw data that were highly variable.

[3] = test system: mammary gland of lactating dairy cows; assay: Field study of involution induction: change in lactose content of milk samples after a single intramammary infusion at dry-off; settings: difference in lactose concentration vs Day 0, single intramammary infusion, peptides 4 mg in 10 ml, casein hydrolyzate 20 ml; for Changes in Lactose content in milk samples, Day 1, Mean: Day 1 post treatment; for Changes in Lactose content in milk samples, Day 2, Mean: Day 2 post treatment; for Changes in Lactose content in milk samples, Day 3, Mean: Day 3 post treatment
Method: as §1, §2, §3, §4, §5, §6, §7, §8
Lactose values in the milk samples were determined at the Central Laboratory of Milk Quality, Caesaria Industrial Park, Israel, according to ISO 2266211DF 198:2007.
Data from six quarters were excluded from the analysis of lactose changes. Data from one of those quarters were omitted due to a missing initial value. For the other five quarters, lactose concentrations taken during the three follow-up days could not be analyzed due to a rapid mammary involution process, resulting in non-sufficient milk sample for lactose analysis.
as §9
One of the most significant outcomes of involution in terms of milk composition is a reduction in lactose content. Thus, lactose concentration was also measured in the milk samples taken before and after peptide or CNH administration as described for the pH measurements hereinabove. […]

| Substance | Changes of pH in milk samples, Day 1, Mean [1] | Changes of pH in milk samples, Day 2, Mean [1] | Changes of pH in milk samples, Day 3, Mean [1] | Changes in Somatic Cell Counts in milk samples, Day 1, Mean [2] | Changes in Somatic Cell Counts in milk samples, Day 2, Mean [2] | Changes in Somatic Cell Counts in milk samples, Day 3, Mean [2] | Changes in Lactose content in milk samples, Day 1, Mean [3] | Changes in Lactose content in milk samples, Day 2, Mean [3] | Changes in Lactose content in milk samples, Day 3, Mean [3] |
| --- | --- | --- | --- | --- | --- | --- | --- | --- | --- |
| Lys-Lys-Ser(P)-Leu-Ser(P)-Ser(P)-Ser(P)-NH2 (KK[pS]L[pS][pS][pS]-NH2; N-terminus assumed; SMILES CC(C)C[C@H](NC(=O)[C@H](COP(=O)(O)O)NC(=O)[C@H](CCCCN)NC(=O)[C@@H](N)CCCCN)C(=O)N[C@@H](COP(=O)(O)O)C(=O)N[C@@H](COP(=O)(O)O)C(=O)N[C@@H](COP(=O)(O)O)C(N)=O) [A(p)] | 0.016 | 0.020 | 0.118 | 0.592 | 1.212 | 1.829 | −0.462 | −1.364 | −1.771 |
| KSSSEE-NH2 | 0.047 | −0.028 | 0.115 | −0.186 | 0.843 | 1.492 | −0.368 | −1.531 | −1.675 |
| KKSLSS-NH2 [A] | 0.048 | −0.002 | 0.072 | 0.911 | 1.571 | 2.090 | −0.463 | −1.268 | −1.773 |
| Lys-Ser(P)-Ser(P)-Ser(P)-Glu-Glu-NH2 (K[pS][pS][pS]EE-NH2; N-terminus assumed; SMILES NCCCC[C@H](N)C(=O)N[C@@H](COP(=O)(O)O)C(=O)N[C@@H](COP(=O)(O)O)C(=O)N[C@@H](COP(=O)(O)O)C(=O)N[C@@H](CCC(=O)O)C(=O)N[C@@H](CCC(=O)O)C(N)=O) [E(p), casein-derived peptide, positive control] | 0.045 | 0.061 | 0.128 | 0.060 | 1.175 | 1.847 | −0.354 | −1.530 | −2.042 |
| Glu-Ser(P)-Leu-Ser(P)-Ser(P)-Ser(P)-Glu-Glu-NH2 (E[pS]L[pS][pS][pS]EE-NH2; N-terminus assumed; SMILES CC(C)C[C@H](NC(=O)[C@H](COP(=O)(O)O)NC(=O)[C@@H](N)CCC(=O)O)C(=O)N[C@@H](COP(=O)(O)O)C(=O)N[C@@H](COP(=O)(O)O)C(=O)N[C@@H](COP(=O)(O)O)C(=O)N[C@@H](CCC(=O)O)C(=O)N[C@@H](CCC(=O)O)C(N)=O) [D(p), casein-derived peptide, positive control] | 0.027 | −0.018 | 0.077 | 0.383 | 1.181 | 1.998 | −0.431 | −1.460 | −2.180 |
| Lys-Lys-Ser-Ser-NH2 [C] | 0.034 | −0.006 | −0.001 | 0.511 | 1.194 | 0.650 | −0.846 | −1.554 | −0.387 |
| ESLSSSEE-NH2 [D] | 0.000 | −0.027 | 0.013 | 0.387 | 1.023 | −0.249 | −0.749 | −1.387 | −0.090 |
